From US20240043527A1 (BioNTech SE, priority 2020, published 2024)

Tests used:
[1] = test system: locally advanced, unresectable or metastatic pancreatic cancer; settings: erlotinib versus placebo; cited from earlier work
[2] = test system: pancreatic cancer cell lines; settings: cited from earlier work; for de novo CLDN-18.2 expression: CLDN-18.2-negative cell lines; for CLDN-18.2 expression levels: pancreatic cancer cell lines with existing expression
PDAC = settings: metastasized stage; Conroy et al. 2011; cited from earlier work
advanced BTC = settings: first-line treatment of advanced disease; cited from earlier work
[3] = test system: gastric and gastro-esophageal cancer; settings: cited from earlier work
[4] = cited from earlier work
[5] = molecular target: first extracellular domain (ECD1) of CLDN-18.2 (Homo sapiens, UniProt P56856); settings: cited from earlier work
MDA-MB-231 cells = assay: Ex vivo ADCC assay with serum of dosed non-human primates, target-negative control cells; type: cell-based; settings: FIG. 5 Panel C dilution row
Experimental: (§1) Non-Human Primates (NHP) received three repetitive doses of 0.1, 0.4 or 1.6 mg/kg RB_RMAB01 once weekly. RiboMab01-containing serum of all monkeys sampled 24 hours (black bars) and 168 hours (white bars) post 1st injection was directed to luciferase-based ex vivo ADCC assays. […] Human PBMCs from two different healthy donors (24 h, donor 1, 168 h, donor 2) served as effector cells. (Panel A) RiboMab01-mediated ADCC of NUG-C4 cells after 48 hours incubation is shown. (Panel B) Unspecific lysis on target-negative MDA-MB-231 cells is shown. Error bars are standard error of the mean (n=3). (Panel C) Serum of NHP No. 14 (1.6 mg/kg RB_RMAB01, RiboMab01 serum concentration 232 μg/mL) collected 48 hours after the 3rd dosing was used for a luciferase-based ex vivo ADCC assays. […] Human PBMCs of a healthy donor served as effector cells. […] Incubation time was 48 hours. Error bars are standard errors of the mean (n=3).
(§2) ADCC assays were performed as described in Example 2. […] Purified IMAB362 served as assay reference protein.

[6] = molecular target: CLDN-18.2+ NUG-C4 transfectants; assay: In vitro ADCC assay (luciferase-based); type: cell-based, human; settings: human PBMCs from three donors, E:T 30:1, 48 hours
Experimental: RiboMab01-containing cell culture supernatant from CHO-K1 cells lipofected with RB_RMAB01 was subjected to (Panel A) ADCC and (Panel B) CDC assays. […] Human PBMCs of three different healthy donors were utilized as effector cells (E:T ratio 30:1). Target or control and effector cells were incubated for 48 hours with the indicated RiboMab01 and IMAB362 reference protein concentrations. Specific cell lysis as determined in a luciferase-based assay is shown. […] Target and control cells were incubated with human serum and RiboMab01 concentrations as indicated for 2 hours. CDC determined in a luciferase-based assay is shown. Error bars are standard errors of the mean (n=3).
Mode of action analysis: Antibody-dependent cellular cytotoxicity (ADCC) and complement-dependent cytotoxicity (CDC) in vitro. […] To simulate in vivo conditions, human PBMCs from three different healthy donors were used as effector cells in ADCC assays in an effector to target (E:T) ratio of 30:1 and human serum (e.g., commercially available human serum) was used as a source of complement in CDC assays.

[7] = test system: CLDN-18.2+ NUG-C4 transfectants; assay: Ex vivo ADCC assay with serum of dosed non-human primates; type: cell-based; settings: serum of monkey No. 14 (1.6 mg/kg) 48 hours after 3rd dosing or recombinant reference protein; 48 hours incubation
Experimental: as §1, §2

[8] = cited from earlier work; remark: listed apart in the source
CLDN-18.2+ cells = settings: in serum; Sahin et al. 2018; cited from earlier work
[9] = Apparent pKa of the amino lipid; type: physicochemical
[10] = ≥70% CLDN-18.2 expression subset, vs EOX, p<0.0005

For `C#Cc1cccc(Nc2ncnc3cc(OCCOC)c(OCCOC)cc23)c1` [erlotinib], the “median overall survival (OS) benefit” value [1] is listed as 0.4 month and the “median progression-free survival (PFS) benefit” value [1] is listed as 0.3 month.
For `O=C1[O][Pt]2([NH][C@@H]3CCCC[C@H]3[NH]2)[O]C1=O` [oxaliplatin], the “de novo CLDN-18.2 expression” value [2] is listed as “not observed to increase de novo expression” and the CLDN-18.2 expression levels [2] is listed as “upregulate existing CLDN-18.2 expression levels”.
For FOLFIRINOX, the “median survival compared to gemcitabine alone” value (PDAC) is listed as “nearly double median survival”.
In the case of `Nc1ccn([C@@H]2O[C@H](CO)[C@@H](O)C2(F)F)c(=O)n1` [gemcitabine], the “median OS” value (advanced BTC) is given as 8.1 months, the “de novo CLDN-18.2 expression” value [2] is given as “not observed to increase de novo expression” and the CLDN-18.2 expression levels [2] is given as “upregulate existing CLDN-18.2 expression levels”.
For “IMAB362: full IgG1 monoclonal antibody targeting CLDN-18.2; used as recombinant reference protein”, the “change of median overall survival” value ([3]; patients with ≥70% of tumor cells with ≥2+ CLDN-18.2 staining) is given as “near-doubling”, the “benefit in overall survival (OS)” value [3, 10] is given as 33.1 weeks and the “delay in central independent reviewed progression” value [3, 10] is given as 14.5 weeks. The cmax ([4]; repeated doses up to 1000 mg/m^2 q3w) was “up to 603 μg/mL”, the “tolerability across various trials” value ([4]; single agent and in combination with chemotherapy) was “well tolerated” and the “binding to other claudin family members including CLDN18.1” value [5] was “does not bind”. The “recognition of ECD1 of CLDN-18.2” value [5] was “high affinity and specificity”, the “unspecific lysis on control cells” value (MDA-MB-231 cells) was “weak unspecific lysis” and the “ADCC EC50” value [6] was 0.014 to 0.265 µg/mL. For the same molecule, the EC50 [7] was 0.151 nM, the “patients with grade 3 vomiting” value ([8]; 12 patients, 600 mg/m^2 dose) was 22% and the patients with fatigue ([8]; TEAE) was 22%. The patients with nausea ([8]; TEAE) was 61%, the patients with vomiting ([8]; TEAE) was 50% and the “patients with grade 3 nausea” value ([8]; eight patients, 600 mg/m^2 dose) was 15%. The “patients with treatment emergent adverse events (TEAEs)” value ([8]; n=44/54) was 82% and the “ADCC EC95 (concentration that gives 95% response)” value (CLDN-18.2+ cells) was 0.3 to 28 µg/mL.
In the case of `O=c1[nH]cc(F)c(=O)[nH]1` [5-fluorouracil], the “de novo CLDN-18.2 expression” value [2] is given as “not observed to increase de novo expression” and the CLDN-18.2 expression levels [2] is given as “upregulate existing CLDN-18.2 expression levels”.
Molecule `CCCCCCC(CCCC)C(=O)OCCCCCCCCCN(CCCO)CCCCCCCCCOC(=O)C(CCCC)CCCCCC` (stereo not shown) [Cationic Lipid A, ((3-Hydroxypropyl)azanediyl)bis(nonane-9,1-diyl)bis(2-butyloctanoate)] has a pKa [9] of about 6.25.
